According to publication PMC9927457 (Microbiology Spectrum, 2023):
Values after ≈ are worked out from the molar mass of the structure shown. Where two headings read alike, the source gives them in different places.

Assays:
[1] = system: M. tuberculosis wild-type strain; experiment: MIC against wild-type M. tuberculosis; format: cell-based, Mycobacterium tuberculosis; conditions: for MIC: read-out: MIC Wild type
[2] = system: M. tuberculosis strain under expressing LepB (LepB-UE); experiment: microbe, parasite or virus in culture; format: cell-based, Mycobacterium tuberculosis
HepG2 cells = experiment: HepG2 cytotoxicity; format: cell-based, human; conditions: 3 days exposure, CellTiter-Glo
Description: HepG2 cells were used to measure eukaryotic cytotoxicity. Viability of HepG2 was measured using CellTiter-Glo reagent (Promega) after 3 days of exposure to compounds. […] Staurosporine controls (maximum inhibition) and a staurosporine dose response were included on every plate.

Caco-2 cells = experiment: Caco-2 permeability
Description: (§1) Permeability was measured across Caco-2 cells cultured in a Millipore 96-well Caco-2 plate. For apical to basolateral (A→B) permeability, 10 μM compound was added to the apical (A) side and amount of permeation was determined on the basolateral (B) side; for basolateral to apical (B→A) permeability, the compound was added to the B side and the amount of permeation was determine on the A side. Time points were taken at 2 h.
Table S2. Permeability. Permeability was measured using Caco-2 cells after 1 and 2 hours incubation with compound. (A→B) is Apical to Basolateral; (B→A) is Basolateral to Apical. Data is expressed as permeability (10-6 cm s-1). dQ/dt is rate of permeation, C0 is initial concentration […]
Article Duration direction value replicate replicate mean recovery

[3] = Plasma protein binding (Rapid Equilibrium Dialysis); format: in vitro ADME, human
Description: Molecule fraction fraction Post-Assay
Table S5. Plasma protein binding
Protein binding was measured in human plasma using Rapid Equilibrium Dialysis (RED) devices (Pierce) according to the manufacturers’ instructions; 5 µM compounds in plasma were dialysed against PBS for 4 h at 37C. Compounds were detected by LC-MS/MS in plasma and PBS

[4] = Microsomal metabolic stability; conditions: human, microsomes, pH 7.4
Description: as §1
Table S3. Metabolic stability. Metabolic stability was measured using human liver microsomes. […]

[5] = target: SPase activity in M. tuberculosis H37Rv cell membrane fractions (Mycobacterium tuberculosis, UniProt P9WKA1); experiment: Inhibition of secretion (SPase activity) in membrane fractions; format: biochemical; conditions: fluorogenic peptide substrate 2 μM; 4 h, 37 °C
Chain of SPase activity in M. tuberculosis H37Rv cell membrane fractions (P9WKA1 whole entry): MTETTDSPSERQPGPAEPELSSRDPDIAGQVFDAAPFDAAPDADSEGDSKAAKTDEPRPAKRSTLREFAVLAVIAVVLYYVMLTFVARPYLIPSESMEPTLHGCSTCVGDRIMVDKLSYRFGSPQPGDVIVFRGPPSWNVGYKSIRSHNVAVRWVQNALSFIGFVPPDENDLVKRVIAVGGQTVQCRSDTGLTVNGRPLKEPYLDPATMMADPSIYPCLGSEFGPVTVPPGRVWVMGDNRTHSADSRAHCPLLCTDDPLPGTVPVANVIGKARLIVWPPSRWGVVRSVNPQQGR

RAW 264.7 macrophages = experiment: Cytotoxicity against infected macrophages; format: cell-based, murine; conditions: Mus musculus; infected RAW264:7 cells, 72 h; read-out: IC50 Macrophage
Description: Murine RAW 264.7 macrophages (ATCC TIB-71) were infected with M. tuberculosis DsRed (DREAM8) ([29]) as described at a multiplicity of infection of 1 for 24 h, washed, harvested, and dispensed into 384-well plates ([30]). Infected macrophages were exposed to compounds for 72 h; cell nuclei were stained with SYBR green I. Plates were imaged with an ImageXpress Micro High Content Screening System (Molecular Devices) using a ×4 objective and FITC and Texas Red channels. MetaXpress was used to determine the integrated intensity of bacteria or macrophages. […] Isoniazid and staurosporine controls (maximum inhibition) and dose responses were included on every plate.

[6] = concentration required to inhibit growth by 90%, 5 days culture
[7] = Mycobacterium tuberculosis, 120 h, concentration required to inhibit growth by 90%, 5 days culture
[8] = Mycobacterium tuberculosis, 120 h

| Compound | MIC [1, 7] | MIC [2, 8] | IC50 (HepG2 cells; Homo sapiens, HepG2, 72 h) | further results |
| --- | --- | --- | --- | --- |
| 1-butyl-3-(5-methoxybenzo[d]oxazol-2-yl)thiourea [Molecule 35] |  |  |  | MIC [1, 6]: >200 µM; MIC [2]: >200 µM; IC50 (HepG2 cells): > 100 µM |
| CC(C)NC[C@H](O)COc1cccc2ccccc12 (racemic) [Propanolol, propanolol, reference compound] |  |  |  | Efflux ratio (Re) (Caco-2 cells; Papp(B→A)/Papp(A→B)): 1.5; Mean A→B Papp (Caco-2 cells; apical to basolateral, 10 μM compound, 2 h): 20 10^−6 cm/s; Mean B→A Papp (Caco-2 cells; basolateral to apical, 10 μM compound, 2 h): 30 10^−6 cm/s; Mean plasma fraction Unbound Fuplasma ([3]; human plasma, 5 µM, dialysed against PBS 4 h at 37C): 28.00%; Post-Assay Recovery ([3]; human plasma, RED device): 89.4% |
| COc1ccc2c(c1)[C@]13CCCC[C@@H]1[C@H](C2)N(C)CC3 [Dextromethorphan, dextromethorphan, reference compound] |  |  |  | half-life at 1 µM [4]: 1.97 h; microsomal CLint at 1 µM [4]: 19.5 µL/min/mg |
| CCCCCC(=O)Nc1nc2ccccc2s1 [Molecule 2] | > 200 µM | > 200 µM | 74 ± 13 µM |  |
| Cc1ccc(C(=O)Nc2nc3ccccc3s2)cc1 [Molecule 3] | > 200 µM | 140 µM (≈ 37.6 µg/mL) | > 100 µM |  |
| CCCCCCNc1nc2ccccc2s1 [Molecule 4] | 125 µM (≈ 29.3 µg/mL) | < 100 µM | 55 ± 8.5 µM | MIC Wild type [1, 6]: 125 ± 13 µM (≈ 29.3 µg/mL); MIC LepB-UE [2]: 82 ± 16 µM (≈ 19.2 µg/mL) |
| CCCCNC(=O)Nc1nc2ccccc2s1 [Molecule 5] | > 200 µM | < 100 µM | 39 ± 25 µM | MIC LepB-UE [2]: 61 ± 9.1 µM (≈ 15.2 µg/mL) |
| S=C(NCc1ccccc1)Nc1nc2ccccc2s1 [Molecule 6] | > 200 µM |  | 6 ± 0.1 µM |  |
| COc1ccc(NC(=S)Nc2nc3ccccc3s2)cc1 [Molecule 7] | > 200 µM | > 200 µM | > 100 µM |  |
| COc1ccc(NC(=S)Nc2nccs2)cc1 [Molecule 8] | 27 µM (≈ 7.16 µg/mL) |  | 21 ± 19 µM | MIC Wild type [1, 6]: 27 ± 17 µM (≈ 7.16 µg/mL); IC50 [5]: > 200 µM |
| CCCCNC(=S)Nc1ccccn1 [Molecule 9] | > 200 µM | 100 µM (≈ 20.9 µg/mL) | 65 ± 50 µM |  |
| c1ccc2scnc2c1 [Molecule 10] | > 200 µM | > 100 µM | 7.6 ± 6.2 µM |  |
| CCCCNC(=S)Nc1nc2ccccc2[nH]1 [Molecule 11, 1-(benzo[d]imidazol-2-yl)-3-butylthiourea] | 120 ± 10 µM (≈ 29.8 µg/mL) | 29 ± 2.1 µM (≈ 7.2 µg/mL) | 6 ± 0.1 µM | IC50 [5]: > 200 µM |
| CCCCNC(=S)Nc1nc2c(Cl)cccc2s1 [Molecule 13, 1-butyl-3-(4-chlorobenzo[d]thiazol-2-yl)thiourea] | > 200 µM | 7.9 µM (≈ 2.37 µg/mL) | > 100 µM | MIC LepB-UE [2]: 7.9 ± 0.6 µM (≈ 2.37 µg/mL); IC50 (RAW 264.7 macrophages): 12 ± 2.8 µM; IC50 [5]: > 200 µM |
| CCCCNC(=S)NC1=NCCS1 [Molecule 15, 1-butyl-3-(4,5-dihydrothiazol-2-yl)thiourea] | 170 µM (≈ 37 µg/mL) | 160 µM (≈ 34.8 µg/mL) | 75 µM | MIC Wild type [1, 6]: 170 ± 1.0 µM (≈ 37 µg/mL); MIC LepB-UE [2]: 160 ± 1.0 µM (≈ 34.8 µg/mL); IC50 (HepG2 cells): > 100 µM |
| CCCCNC(=S)Nc1nc(C)cs1 [Molecule 16, 1-butyl-3-(4-methylthiazol-2-yl)thiourea] | 59 ± 1 µM (≈ 13.5 µg/mL) | 85 ± 17 µM (≈ 19.5 µg/mL) | > 100 µM | IC50 [5]: > 200 µM |

| Compound | MIC [1, 7] | MIC [2, 8] | IC50 (HepG2 cells; Homo sapiens, HepG2, 72 h) | further results |
| --- | --- | --- | --- | --- |
| CCCCNC(=S)Nc1nc(C)c(C)s1 [Molecule 17, 1-butyl-3-(4,5-dimethylthiazol-2-yl)thiourea] | > 200 µM | 112 ± 25 µM (≈ 27.3 µg/mL) | > 100 µM |  |
| CCCCNC(=S)Nc1nc(C)c[nH]1 [Molecule 18, 1-butyl-3-(4-methyl-1H-imidazol-2-yl)thiourea] | 44 µM (≈ 9.34 µg/mL) | 51 µM (≈ 10.8 µg/mL) | 61 ± 4 µM | MIC Wild type [1, 6]: 44 ± 8.0 µM (≈ 9.34 µg/mL); MIC LepB-UE [2]: 51 ± 1.0 µM (≈ 10.8 µg/mL) |
| CCCCNC(=S)Nc1ccnn1C [Molecule 19, 1-butyl-3-(1-methyl-1H-pyrazol-5-yl)thiourea] | > 200 µM | > 200 µM | > 100 µM | IC50 [5]: > 200 µM |
| CCCCNC(=S)Nc1nccc(C)n1 [Molecule 20, 1-butyl-3-(4-methylpyrimidin-2-yl)thiourea] | > 200 µM | > 200 µM | > 100 µM |  |
| CCCCNC(=S)Nc1ncc(C)o1 [Molecule 22, 1-butyl-3-(5-methyloxazol-2-yl)thiourea] | 10 µM (≈ 2.13 µg/mL) | 8 to 9 µM (≈ 1.71 to 1.92 µg/mL) | 32 ± 19 µM | MIC Wild type [1, 6]: 10 ± 12 µM (≈ 2.13 µg/mL); MIC LepB-UE [2]: 9.1 ± 0.4 µM (≈ 1.94 µg/mL); IC50 (RAW 264.7 macrophages): 7.1 ± 1.5 µM |
| CCCCNC(=S)Nc1nc(-c2ccccc2)co1 [Molecule 23, 1-butyl-3-(4-phenyloxazol-2-yl)thiourea] | 10 to 11 µM (≈ 2.75 to 3.03 µg/mL) | 10 to 11 µM (≈ 2.75 to 3.03 µg/mL) | 32 ± 4 µM | MIC Wild type [1, 6]: 11 ± 4.0 µM (≈ 3.03 µg/mL); MIC LepB-UE [2]: 10 ± 2.0 µM (≈ 2.75 µg/mL); IC50 (RAW 264.7 macrophages): 30 ± 6.4 µM; IC50 [5]: > 200 µM |
| CCCCSC(=S)Nc1nc2ccccc2s1 [Molecule 25, butyl benzo[d]thiazol-2-ylcarbamodithioate] | 90 ± 20 µM (≈ 25.4 µg/mL) | 101 ± 27 µM (≈ 28.5 µg/mL) | 29 ± 1 µM |  |
| S=C(NCCc1ccccc1)Nc1nc2ccccc2s1 [Molecule 26, 1-(benzo[d]thiazol-2-yl)-3-phenethylthiourea] | > 200 µM | 8 ± 3 µM (≈ 2.51 µg/mL) | 8 ± 6 µM | IC50 (RAW 264.7 macrophages): 1.4 ± 0.2 µM; IC50 [5]: > 200 µM; fraction unbound at 4 h, 5 µM ([3]; human, plasma, Mean plasma fraction Bound): 0.055 |
| CCCCN(C)C(=S)Nc1nc2ccccc2s1 [Molecule 27, 3-(benzo[d]thiazol-2-yl)-1-butyl-1-methylthiourea] | 195 ± 7 µM (≈ 54.5 µg/mL) | 155 to 195 µM (≈ 43.3 to 54.5 µg/mL) | 5.6 µM | MIC [1, 8]: 155 to 195 µM (≈ 43.3 to 54.5 µg/mL); MIC LepB-UE [2]: 155 ± 36 µM (≈ 43.3 µg/mL); IC50 (HepG2 cells): 6 ± 5 µM; IC50 [5]: > 200 µM |
| CC(C)CNC(=S)Nc1nc2ccccc2s1 [Molecule 28, 1-(benzo[d]thiazol-2-yl)-3-isobutylthiourea] |  | 12 to 21 µM (≈ 3.18 to 5.57 µg/mL) |  | MIC LepB-UE [2]: 21 ± 11 µM (≈ 5.57 µg/mL) |
| CCCCNC(=S)Nc1ccc2scnc2c1 [Molecule 30, 1-(benzo[d]thiazol-5-yl)-3-butylthiourea] | 73 ± 12 µM (≈ 19.4 µg/mL) | 49 ± 15 µM (≈ 13 µg/mL) | > 100 µM |  |
| CCCCNC(=S)Nc1nc2cc(Cl)ccc2o1 [Molecule 32, 1-butyl-3-(5-chlorobenzo[d]oxazol-2-yl) thiourea] | 84 ± 13 µM (≈ 23.8 µg/mL) | 68 ± 3 µM (≈ 19.3 µg/mL) | 9 ± 3 µM |  |
| CCCCNC(=S)Nc1nc2ccc(Cl)cc2o1 [Molecule 33, 1-butyl-3-(6-chlorobenzo[d]oxazol-2-yl)thiourea] | > 200 µM | 49 ± 6 µM (≈ 13.9 µg/mL) | 32 ± 3 µM | IC50 [5]: > 200 µM |
| CCCCNC(=S)Nc1nc2cccc(Cl)c2o1 [Molecule 34, 1-butyl-3-(7-chlorobenzo[d]oxazol-2-yl)thiourea] | > 200 µM | 53 ± 1 µM (≈ 15 µg/mL) | 13 ± 3 µM | IC50 (RAW 264.7 macrophages): 5.8 ± 0.4 µM |
| CC(=O)CC(c1ccccc1)c1c(O)c2ccccc2oc1=O (stereo not drawn) [Warfarin, reference compound] |  |  |  | recovery at 4 h, 5 µM ([3]; human plasma, RED device, read-out: Post-Assay Recovery): 88.6%; fraction unbound ([3]; human, plasma, human plasma, 5 µM, dialysed against PBS 4 h at 37C, read-out: Mean plasma fraction Bound (converted)): 0.007; fraction unbound ([3]; human, plasma, human plasma, 5 µM, dialysed against PBS 4 h at 37C, read-out: Mean plasma fraction Unbound Fuplasma): 0.0067 |
